According to patent publication US20210253568A1, “AZAINDOLE DERIVATIVES AS RHO-KINASE INHIBITORS” (CHIESI FARMACEUTICI S.p.A., priority 2018, published 2021):

What was measured:
ROCK 1 = ROCK 1 (Homo sapiens, UniProt Q13464); assay: In vitro Rho kinase inhibitory activity assay (ADP-Glo), Rho kinase 1; format: biochemical; details: Ki by Cheng-Prusoff from IC50; 10 μM ATP, 25° C., expressed as range of activity
ROCK 2 = ROCK 2 (Homo sapiens, UniProt O75116); assay: In vitro Rho kinase inhibitory activity assay (ADP-Glo), Rho kinase 2; format: biochemical; details: Ki by Cheng-Prusoff from IC50; 10 μM ATP, 25° C., expressed as range of activity
ROCK 2, sequence (O75116 whole entry): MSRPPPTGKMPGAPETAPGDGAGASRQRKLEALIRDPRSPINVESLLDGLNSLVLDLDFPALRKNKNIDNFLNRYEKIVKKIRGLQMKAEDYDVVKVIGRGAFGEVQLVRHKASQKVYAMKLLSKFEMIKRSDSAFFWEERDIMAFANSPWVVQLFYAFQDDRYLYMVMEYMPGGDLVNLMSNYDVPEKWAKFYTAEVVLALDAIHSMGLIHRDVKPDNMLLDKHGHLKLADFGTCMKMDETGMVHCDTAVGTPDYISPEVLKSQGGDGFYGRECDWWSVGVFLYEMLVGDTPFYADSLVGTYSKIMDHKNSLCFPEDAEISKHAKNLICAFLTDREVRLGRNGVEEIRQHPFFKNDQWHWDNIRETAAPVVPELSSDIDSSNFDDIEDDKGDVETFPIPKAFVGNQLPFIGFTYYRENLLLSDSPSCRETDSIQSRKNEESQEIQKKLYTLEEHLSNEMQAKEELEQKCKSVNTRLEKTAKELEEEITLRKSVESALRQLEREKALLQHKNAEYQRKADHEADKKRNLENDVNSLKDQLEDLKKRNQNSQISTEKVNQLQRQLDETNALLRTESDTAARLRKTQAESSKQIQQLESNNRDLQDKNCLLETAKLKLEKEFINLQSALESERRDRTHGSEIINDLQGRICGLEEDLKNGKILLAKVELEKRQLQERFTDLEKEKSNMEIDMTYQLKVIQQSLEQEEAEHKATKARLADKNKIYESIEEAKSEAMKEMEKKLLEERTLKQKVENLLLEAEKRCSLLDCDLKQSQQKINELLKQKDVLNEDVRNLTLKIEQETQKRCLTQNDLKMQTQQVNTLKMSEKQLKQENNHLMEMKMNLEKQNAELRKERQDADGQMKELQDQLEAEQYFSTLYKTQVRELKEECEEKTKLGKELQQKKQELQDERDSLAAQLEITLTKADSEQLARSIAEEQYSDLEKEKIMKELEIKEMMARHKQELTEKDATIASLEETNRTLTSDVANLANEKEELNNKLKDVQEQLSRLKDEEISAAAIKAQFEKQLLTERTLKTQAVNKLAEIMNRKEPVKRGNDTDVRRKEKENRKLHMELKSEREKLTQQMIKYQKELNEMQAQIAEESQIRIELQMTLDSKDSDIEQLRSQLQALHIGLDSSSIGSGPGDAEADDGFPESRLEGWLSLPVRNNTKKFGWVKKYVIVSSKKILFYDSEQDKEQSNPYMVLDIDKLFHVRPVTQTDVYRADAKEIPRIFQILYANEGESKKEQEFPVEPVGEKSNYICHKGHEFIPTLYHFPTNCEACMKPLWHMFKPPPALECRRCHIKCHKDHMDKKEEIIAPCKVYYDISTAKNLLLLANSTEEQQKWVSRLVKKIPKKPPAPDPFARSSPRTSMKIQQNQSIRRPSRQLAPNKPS

ROCK 1, sequence (Q13464 whole entry): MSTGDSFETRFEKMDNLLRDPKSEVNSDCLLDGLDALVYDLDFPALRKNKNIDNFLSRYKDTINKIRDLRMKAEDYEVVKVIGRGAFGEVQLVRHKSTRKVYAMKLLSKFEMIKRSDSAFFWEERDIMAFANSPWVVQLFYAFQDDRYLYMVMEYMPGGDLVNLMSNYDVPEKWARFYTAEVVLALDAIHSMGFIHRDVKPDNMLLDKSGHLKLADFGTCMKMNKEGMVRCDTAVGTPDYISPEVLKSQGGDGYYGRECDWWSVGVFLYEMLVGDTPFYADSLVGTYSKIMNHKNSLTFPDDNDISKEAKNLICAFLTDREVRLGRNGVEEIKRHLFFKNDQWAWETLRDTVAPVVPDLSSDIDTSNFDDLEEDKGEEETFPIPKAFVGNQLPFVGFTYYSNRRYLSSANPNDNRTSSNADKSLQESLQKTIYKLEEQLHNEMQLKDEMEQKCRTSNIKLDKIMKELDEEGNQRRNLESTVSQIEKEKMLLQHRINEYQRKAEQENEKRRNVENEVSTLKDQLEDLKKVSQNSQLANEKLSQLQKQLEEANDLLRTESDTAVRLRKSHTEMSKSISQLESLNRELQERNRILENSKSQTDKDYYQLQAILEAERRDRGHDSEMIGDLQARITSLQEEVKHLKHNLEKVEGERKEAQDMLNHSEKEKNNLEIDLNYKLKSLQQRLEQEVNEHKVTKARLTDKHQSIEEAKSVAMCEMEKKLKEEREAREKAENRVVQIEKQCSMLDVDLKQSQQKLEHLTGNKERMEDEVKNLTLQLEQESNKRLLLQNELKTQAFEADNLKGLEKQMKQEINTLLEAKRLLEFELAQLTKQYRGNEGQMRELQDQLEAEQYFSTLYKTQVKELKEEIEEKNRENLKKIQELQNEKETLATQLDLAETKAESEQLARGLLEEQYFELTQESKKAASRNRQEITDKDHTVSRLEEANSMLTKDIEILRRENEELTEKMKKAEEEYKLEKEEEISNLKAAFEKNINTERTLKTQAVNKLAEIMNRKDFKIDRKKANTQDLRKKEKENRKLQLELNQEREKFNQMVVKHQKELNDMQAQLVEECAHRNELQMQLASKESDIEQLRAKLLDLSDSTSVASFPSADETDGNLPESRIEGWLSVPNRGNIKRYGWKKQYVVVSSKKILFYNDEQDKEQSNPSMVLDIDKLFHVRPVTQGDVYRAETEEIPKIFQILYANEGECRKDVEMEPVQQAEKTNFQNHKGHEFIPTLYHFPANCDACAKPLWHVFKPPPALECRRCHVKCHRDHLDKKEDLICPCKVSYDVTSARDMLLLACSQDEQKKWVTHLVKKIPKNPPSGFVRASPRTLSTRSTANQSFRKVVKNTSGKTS

Row | Ki (ROCK 1) [nM] | Ki (ROCK 2) [nM] | SMILES
1 | 3 to 30 | < 3 | NCc1ccc(Oc2ccnc3[nH]cc(-c4ccnc(NCc5ccccc5)n4)c23)c(F)c1 [Example 32, 4-(4-(4-(aminomethyl)-2-fluorophenoxy)-1H-pyrrolo[2,3-b]pyridin-3-yl)-N-benzylpyrimidin-2-amine]
2 | < 3 | < 3 | Cn1cc(-c2c[nH]c3nccc(Oc4ccc5c(c4)CNCC5)c23)cn1 [Example 21, 7-((3-(1-methyl-1H-pyrazol-4-yl)-1H-pyrrolo[2,3-b]pyridin-4-yl)oxy)-1,2,3,4-tetrahydroisoquinoline]
3 | < 3 | < 3 | c1nc(NCc2nccs2)cc(-c2c[nH]c3nccc(Oc4ccc5c(c4)CNCC5)c23)n1 [Example 30, 6-(4-((1,2,3,4-tetrahydroisoquinolin-7-yl)oxy)-1H-pyrrolo[2,3-b]pyridin-3-yl)-N-(thiazol-2-ylmethyl)pyrimidin-4-amine]
4 | 3 to 30 | < 3 | Fc1cc2c(cc1Oc1ncnc3[nH]cc(-c4ccnc(NCc5ccccc5)c4)c13)CNCC2 [Example 6, N-benzyl-4-(4-((6-fluoro-1,2,3,4-tetrahydroisoquinolin-7-yl)oxy)-7H-pyrrolo[2,3-d]pyrimidin-5-yl)pyridin-2-amine]
